Data taken from patent EP0187355A1, “Process for preparing beta-lactam antibiotics” (E.R. Squibb & Sons, Inc., priority 1981, dated 1982).
Structures can show the parent of a compound that is named as a salt. Where two headings read alike, the source gives them in different places.

Legend:
Assay in all cases: MIC, agar dilution
Format in all cases: cell-based
[1] = system: Escherichia coli, 8294; details: Escherichia coli, 8294, 18 h, K-10 agar, 10^4 CFU, 37°C
Procedure: (§1) The following methodology is used to determine the minimum inhibitory concentration (hereinafter referred to as MIC) of the […] of this invention.
(§2) The test organisms are grown in approximately 15-20 ml of Antibiotic Assay broth (Difco) by inoculating (in tubes) the broth with a loopful of the organism from a BHI (Difco) agar slant. The inoculated tubes are incubated at 37°C for 18 to 20 hours. These cultures are assumed to contain 10^9 colony forming units (hereinafter CFU) per milliliter. The cultures are diluted 1:100 to give a final inoculum level of 10^4 CFU; dilutions are made with K-10 broth^*.
(§3) The compounds are dissolved in the appropriate diluent at a concentration of 1000 µg/ml. Twofold dilutions are made in K-10 broth resulting in a range from 1000 µg/ml to 0.5 µg/ml. 1.5 ml of each dilution is placed into individual square petri dishes to which 13.5 ml of K-10 agar^** is added. The final drug concentration in the agar ranges from 100 µg/ml to 0.05 µg/ml. Organism growth control plates containing agar only are prepared and inoculated before and after the test plates. The organisms are applied to the agar surface of each plate with the Denley Multipoint Inoculator (which delivers approximately 0.001 ml of each organism) resulting in a final inoculum level of 10^4 CFU on the agar surface.
(§4) The plates are incubated at 37 °C for 18 hours and the MIC's are determined. The MIC is the lowest concentration of compound inhibiting growth of the organism.
(§5) The tables that follow are tabulated results obtained when the B-lactams of this invention are tested against various organisms. The number following each organism refers to the number of the organism in the collection of E. R. Squibb & Sons,.Inc., Princeton, New Jersey. […] The symbol "N.T." means not tested.

[2] = system: Salmonella typhosa, 1195; details: Salmonella enterica, TYPHOSA, 18 h, K-10 agar, 10^4 CFU, 37°C
Procedure: as §1, §2, §3, §4, §5

[3] = system: Enterobacter aerogenes, 10078; details: Klebsiella aerogenes, 10078, 18 h
Procedure: as §1, §2, §3, §4, §5

[4] = system: Staphylococcus aureus, 10165
Procedure: as §1, §2, §3, §4, §5

[5] = system: Pseudomonas aeruginosa, 9545; details: Pseudomonas aeruginosa, 9545, 18 h, K-10 agar, 10^4 CFU, 37°C
Procedure: as §1, §2, §3, §4, §5

[6] = system: Proteus mirabilis, 3855; details: Proteus mirabilis, 3855, 18 h, K-10 agar, 10^4 CFU, 37°C
Procedure: as §1, §2, §3, §4, §5

[7] = system: Shigella sonnei, 8449; details: Shigella sonnei, 8449, 18 h, K-10 agar, 10^4 CFU, 37°C
Procedure: as §1, §2, §3, §4, §5

[8] = system: Acinetobacter calcoaceticus, 8333; details: Acinetobacter calcoaceticus, 8333, 18 h, K-10 agar, 10^4 CFU, 37°C
Procedure: as §1, §2, §3, §4, §5

[9] = system: Proteus vulgaris, 9416; details: K-10 agar, 10^4 CFU, 37°C
Procedure: as §1, §2, §3, §4, §5

[10] = system: Klebsiella aerogenes, 10440; details: K-10 agar, 10^4 CFU, 37°C
Procedure: as §1, §2, §3, §4, §5

[11] = system: Staphylococcus aureus, 2400
Procedure: as §1, §2, §3, §4, §5

[12] = system: Staphylococcus aureus, 2399; details: Staphylococcus aureus, 2399, 18 h
Procedure: as §1, §2, §3, §4, §5

[13] = system: Proteus rettgeri, 8479; details: K-10 agar, 10^4 CFU, 37°C
Procedure: as §1, §2, §3, §4, §5

[14] = system: Citrobacter freundii, 9518; details: K-10 agar, 10^4 CFU, 37°C
Procedure: as §1, §2, §3, §4, §5

[15] = system: Streptococcus faecalis, 9011
Procedure: as §1, §2, §3, §4, §5

[16] = system: Pseudomonas aeruginosa, 8329; details: K-10 agar, 10^4 CFU, 37°C
Procedure: as §1, §2, §3, §4, §5

[17] = system: Escherichia coli, 10896; details: K-10 agar, 10^4 CFU, 37°C, 18 hours
Procedure: as §1, §2, §3, §4, §5

[18] = system: Serratia marcescens, 9783; details: Serratia marcescens, 9783, 18 h, K-10 agar, 10^4 CFU, 37°C
Procedure: as §1, §2, §3, §4, §5

[19] = system: Staphylococcus aureus, 1276
Procedure: as §1, §2, §3, §4, §5

[20] = system: Escherichia coli, 10857; details: Escherichia coli, 10857, 18 h, K-10 agar, 10^4 CFU, 37°C
Procedure: as §1, §2, §3, §4, §5

[21] = system: Escherichia coli, 10909; details: K-10 agar, 10^4 CFU, 37°C, 18 hours
Procedure: as §1, §2, §3, §4, §5

[22] = system: Klebsiella pneumoniae, 9527; details: Klebsiella pneumoniae, 9527, 18 h, K-10 agar, 10^4 CFU, 37°C
Procedure: as §1, §2, §3, §4, §5

[23] = system: Streptococcus agalactiae, 9287; details: Streptococcus agalactiae, 9287, 18 h, K-10 agar, 10^4 CFU, 37°C
Procedure: as §1, §2, §3
(§6) The MIC is the lowest concentration of compound inhibiting growth of the organism.
(§7) The number following each organism refers to the number of the organism in the collection of E. R. Squibb & Sons,.Inc., Princeton, New Jersey. […] The symbol "N.T." means not tested.

[24] = system: Enterobacter cloacae, 8236; details: Enterobacter cloacae, 8236, 18 h, K-10 agar, 10^4 CFU, 37°C
Procedure: as §1, §2, §3, §6, §7

[25] = system: Micrococcus luteus, 2495; details: Micrococcus luteus, 2495, 18 h, K-10 agar, 10^4 CFU, 37°C, read-out: M.I.C.
Procedure: as §1, §2, §3, §6, §7

CC1C(NC(=O)C(=NOC(C)(C)C(=O)O)c2csc(N)n2)C(=O)N1S(=O)(=O)O (stereo not drawn) [Example 6, [3S-[3α (Z) ,4β]]3-[[(2-Amino-4-thiazolyl) [[1-carboxy-1-methylethoxy)imino]acetyl)amino)-4-methyl-2-oxo-1-azetidinesulfonic acid, dipotassium salt]
MIC [1]: 0.4 µg/mL
MIC [2]: < 0.05 µg/mL
MIC [3]: 0.4 µg/mL
MIC ([4]; Staphylococcus aureus, 10165, 18 h): > 100 µg/mL
MIC [5]: 0.8 µg/mL
MIC [6]: < 0.05 µg/mL
MIC [7]: 0.2 µg/mL
MIC [8]: 100 µg/mL
MIC ([9]; Proteus vulgaris, 9416, 18 h): < 0.05 µg/mL
MIC ([10]; Klebsiella aerogenes, 10440, 18 h): 0.4 µg/mL
MIC ([11]; Staphylococcus aureus, 2400, 18 h): > 100 µg/mL
MIC [12]: > 100 µg/mL
MIC ([13]; Providencia rettgeri, 8479, 18 h): < 0.05 µg/mL
MIC ([14]; Citrobacter freundii, 9518, 18 h): 0.4 µg/mL
MIC ([15]; Enterococcus faecalis, 9011, 18 h): > 100 µg/mL
MIC ([16]; Pseudomonas aeruginosa, 8329, 18 h): 3.1 µg/mL
MIC [17]: 0.2 µg/mL
MIC [18]: 0.2 µg/mL
MIC ([19]; Staphylococcus aureus, 1276, 18 h): > 100 µg/mL
MIC [20]: < 0.05 µg/mL
MIC [21]: < 0.05 µg/mL
MIC [22]: < 0.05 µg/mL
MIC [23]: 50 µg/mL

CC1C(NC(=O)C(=NO)c2csc(N)n2)C(=O)N1S(=O)(=O)O (stereo not drawn) [Example 13, [3S-[3α(Z),4β]]-3-[[(2-amino-4-thiazolyl)-(hydroxyimino)acetyl]amino]-4-methyl-2-oxo-1-azetidinesulfonic acid, potassium salt]
MIC [1]: 1.6 µg/mL
MIC [2]: 0.8 µg/mL
MIC ([3]; Enterobacter aerogenes, 10078, K-10 agar, 10^4 CFU, 37°C, 18 hours, read-out: M.I.C.): 3.1 µg/mL
MIC ([4]; Staphylococcus aureus, 10165, K-10 agar, 10^4 CFU, 37°C, 18 hours, read-out: M.I.C.): 25 µg/mL
MIC ([5]; read-out: M.I.C.): 6.3 µg/mL
MIC ([6]; read-out: M.I.C.): 1.6 µg/mL
MIC [7]: 1.6 µg/mL
MIC ([8]; read-out: M.I.C.): 12.5 µg/mL
MIC ([9]; 18 hours, read-out: M.I.C.): 0.8 µg/mL
MIC ([10]; 18 hours, read-out: M.I.C.): 1.6 µg/mL
MIC ([11]; Staphylococcus aureus, 2400, K-10 agar, 10^4 CFU, 37°C, 18 hours, read-out: M.I.C.): 12.5 µg/mL
MIC ([13]; Providencia rettgeri, 18 hours, read-out: M.I.C.): 0.1 µg/mL
MIC ([14]; 18 hours, read-out: M.I.C.): 0.8 µg/mL
MIC ([15]; Enterococcus faecalis, Streptococcus faecalis, 9011, K-10 agar, 10^4 CFU, 37°C, 18 hours, read-out: M.I.C.): > 100 µg/mL
MIC ([16]; 18 hours, read-out: M.I.C.): > 100 µg/mL
MIC [17]: 1.6 µg/mL
MIC ([18]; read-out: M.I.C.): 0.8 µg/mL
MIC ([19]; Staphylococcus aureus, 1276, K-10 agar, 10^4 CFU, 37°C, 18 hours, read-out: M.I.C.): 25 µg/mL
MIC [20]: 1.6 µg/mL
MIC [21]: 0.8 µg/mL
MIC ([22]; read-out: M.I.C.): 1.6 µg/mL
MIC [24]: 1.6 µg/mL
MIC ([23]; read-out: M.I.C.): 25 µg/mL
MIC [25]: 3.1 µg/mL
